Results reported in patent publication US20040106216A1, “Method of measuring drug-metabolizing enzyme activity, method of evaluating inhibition of drug-metabolizing enzyme activity, and composition for these methods” (Toyo Boseki Kabushiki Kaisha, priority 2002, published 2004).
Residue numbers refer to the chain shown, from its start.

Legend:
[1] = test system: Pseudomonas-derived 17β-hydroxysteroid dehydrogenase; assay: Inhibition of 17β-hydroxysteroid dehydrogenase, estrone substrate, estradiol enzyme immunoassay; format: biochemical; conditions: 0-20 μM final concentration, FIG. 8
[2] = biological target: human cytochrome P450 CYP2C9 (359Ile) (Homo sapiens, UniProt P11712)
human cytochrome P450 CYP2C9 (359Ile), sequence (P11712 whole entry): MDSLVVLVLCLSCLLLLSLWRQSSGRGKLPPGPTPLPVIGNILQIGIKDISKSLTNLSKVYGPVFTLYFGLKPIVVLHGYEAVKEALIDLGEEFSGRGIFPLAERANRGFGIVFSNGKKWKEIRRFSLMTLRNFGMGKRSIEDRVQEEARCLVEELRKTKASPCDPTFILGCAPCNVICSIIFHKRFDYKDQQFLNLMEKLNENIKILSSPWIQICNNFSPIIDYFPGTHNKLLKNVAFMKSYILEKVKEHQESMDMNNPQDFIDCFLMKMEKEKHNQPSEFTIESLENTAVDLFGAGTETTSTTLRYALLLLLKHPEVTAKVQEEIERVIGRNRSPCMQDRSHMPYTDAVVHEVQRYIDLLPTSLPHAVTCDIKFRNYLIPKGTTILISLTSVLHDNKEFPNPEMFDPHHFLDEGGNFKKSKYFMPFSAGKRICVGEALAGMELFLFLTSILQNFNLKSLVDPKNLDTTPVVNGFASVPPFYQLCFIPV
Method: (§1) Purified anti-fluorescein antibodies obtained using as the antigen a protein cross-linked using the X position of fluorescein were diluted with 50 mM carbonic acid buffer (pH 9.6) to a concentration of 1 μg/ml (antibody adsorption liquid), and 100 μL per well was poured into Corning Costar microtiter plates (polystyrene 96-well type). The surfaces were then sealed, and the plates left overnight at 4° C. The following day the antibody adsorption liquid was removed, and each well washed 3 times with 200 μL of 10 mM phosphoric acid buffer (pH 7.2, containing 150 mM NaCl). After washing, using 10 mM phosphoric acid buffer (pH 7.2, containing 150 mM NaCl: phosphoric acid buffer 1) as the base, each well was filled with 200 μL of a blocking solution containing 0.2% casein and 10% sucrose. After being filled with the blocking liquid the plates were left overnight at 4° C., and the following day the blocking liquid was removed and vacuum drying applied for 16 hours. The vacuum-dried plates were sealed in storage bags under reduced pressure, and stored at 4° C. prior to the following measurements.
(§2) A system expressing human cytochrome P450 CYP2C9 was constructed according to the methods of Goldstein et al (Goldstein J. A. et al, Biochemistry Vol. 33 pp 1743-1752 (1994)). A single nucleotide mutation (A→C) replacing isoleucine at 359 position with leucine was then introduced by ordinary methods. Two types of enzyme preparations, human cytochrome P450 CYP2C9 (359Ile) and (359Leu), were prepared by methods described in the literature and used in the following experiment.
(§3) The two human cytochrome P450 CYP2C9 preparations were diluted with 100 mM phosphoric acid buffer (pH 7.2, containing 0.1% BSA: phosphoric acid buffer 2), and concentrations sequences prepared. […]

[3] = biological target: human cytochrome P450 CYP2C9 (359Leu) (Homo sapiens, UniProt P11712, I359L); conditions: 30 μM dibenzylfluorescein; 0-1.2 μM final concentration; FIG. 20
human cytochrome P450 CYP2C9 (359Leu), sequence (P11712 whole entry I359L): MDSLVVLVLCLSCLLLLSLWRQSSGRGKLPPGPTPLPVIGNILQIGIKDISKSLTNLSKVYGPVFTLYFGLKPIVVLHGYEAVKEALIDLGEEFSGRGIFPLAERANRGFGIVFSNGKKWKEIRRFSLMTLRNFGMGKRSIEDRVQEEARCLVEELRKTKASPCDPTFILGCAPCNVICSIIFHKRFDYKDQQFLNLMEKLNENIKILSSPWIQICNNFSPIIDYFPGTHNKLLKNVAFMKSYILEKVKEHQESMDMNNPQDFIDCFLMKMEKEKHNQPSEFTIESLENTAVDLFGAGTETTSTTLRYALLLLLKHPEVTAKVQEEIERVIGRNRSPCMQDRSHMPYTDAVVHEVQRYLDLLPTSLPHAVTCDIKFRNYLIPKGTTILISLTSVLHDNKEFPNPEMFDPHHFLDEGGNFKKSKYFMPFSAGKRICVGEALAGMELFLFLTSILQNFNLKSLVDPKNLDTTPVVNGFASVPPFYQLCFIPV
Method: as §1, §2, §3

[4] = biological target: T1, human cytochrome P450 CYP19 (Homo sapiens, UniProt P11511); assay: Inhibition of human cytochrome P450 CYP19 (aromatase), testosterone substrate, estradiol enzyme immunoassay; format: biochemical; conditions: 62.5 μM testosterone, 20 minutes at 37° C.; α-naphthoflavone 0-3.2 μM, aminoglutethimide 0-9 μM final concentration; FIG. 6, 7
T1 construct: purchased BD Science (Gentest)
T1 sequence (P11511 1-503): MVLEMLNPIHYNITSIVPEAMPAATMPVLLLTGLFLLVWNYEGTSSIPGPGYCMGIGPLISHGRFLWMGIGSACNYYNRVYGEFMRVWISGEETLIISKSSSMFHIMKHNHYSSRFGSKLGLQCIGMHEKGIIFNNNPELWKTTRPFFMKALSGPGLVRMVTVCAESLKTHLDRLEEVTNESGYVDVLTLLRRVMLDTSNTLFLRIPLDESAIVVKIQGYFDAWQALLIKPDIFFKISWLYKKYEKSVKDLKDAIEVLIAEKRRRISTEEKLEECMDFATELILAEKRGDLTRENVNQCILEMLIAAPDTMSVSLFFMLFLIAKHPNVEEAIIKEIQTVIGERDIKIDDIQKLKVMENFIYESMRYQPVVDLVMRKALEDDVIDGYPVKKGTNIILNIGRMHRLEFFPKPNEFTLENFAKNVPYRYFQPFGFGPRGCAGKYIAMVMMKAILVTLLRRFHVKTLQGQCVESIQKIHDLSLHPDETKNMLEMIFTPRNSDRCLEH
Method: as §1, with “The” for “Purified anti-fluorescein antibodies obtained using as the antigen a protein cross-linked using the X position of fluorescein were diluted with 50 mM carbonic acid buffer (pH 9.6) to a concentration of 1 μg/ml (antibody adsorption liquid), and 100 μL per well was poured into Corning Costar microtiter plates (polystyrene 96-well type). The”

[5] = biological target: T2, pig cytochrome P450 CYP19 (133Ile) (Sus scrofa, UniProt P79430); assay: Inhibition of pig cytochrome P450 CYP19 (133Ile), testosterone substrate, estradiol enzyme immunoassay; format: biochemical
T2 construct: made in house
T2 sequence (P79430 1-503): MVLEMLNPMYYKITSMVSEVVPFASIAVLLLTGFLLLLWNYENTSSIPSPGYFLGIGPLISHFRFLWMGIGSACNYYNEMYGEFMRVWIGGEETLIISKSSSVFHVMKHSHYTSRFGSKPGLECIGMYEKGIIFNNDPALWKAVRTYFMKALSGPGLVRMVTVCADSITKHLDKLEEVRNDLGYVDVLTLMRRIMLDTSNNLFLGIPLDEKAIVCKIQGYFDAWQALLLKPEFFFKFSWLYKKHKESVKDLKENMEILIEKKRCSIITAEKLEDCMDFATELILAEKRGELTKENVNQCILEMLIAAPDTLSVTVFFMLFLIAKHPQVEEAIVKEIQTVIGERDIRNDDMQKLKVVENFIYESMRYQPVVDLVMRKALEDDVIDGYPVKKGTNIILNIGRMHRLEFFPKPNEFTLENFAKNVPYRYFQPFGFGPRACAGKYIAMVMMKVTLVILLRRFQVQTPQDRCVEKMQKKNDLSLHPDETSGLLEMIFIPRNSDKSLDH
Method: as §1, with “Purified anti-estradiol” for “Purified anti-fluorescein”, “the 3rd” for “the X”, “of estradiol” for “of fluorescein”, “diluted in” for “diluted with”, “10% saccharose.” for “10% sucrose.”
(§4) A placental system expressing pig cytochrome P450 CYP19 was prepared according to the methods described in Mol. Endocrinol. Vol. 16, pp 1456-1468 (2002), and a mutation introduced replacing isoleucine 133 with methionine or alanine according to ordinary methods. […]

[6] = biological target: T3, pig cytochrome P450 CYP19 (133Met) (Sus scrofa, UniProt P79430, I133M); assay: Inhibition of pig cytochrome P450 CYP19 (133Met), testosterone substrate, estradiol enzyme immunoassay; format: biochemical; conditions: 62.5 μM testosterone; 0-3.2 μM final concentration; FIG. 16
T3 construct: made in house
T3 sequence (P79430 1-503 I133M): T2 sequence (P79430 1-503) with I133M
Method: as §1, with “Purified anti-estradiol” for “Purified anti-fluorescein”, “the 3rd” for “the X”, “of estradiol” for “of fluorescein”, “diluted in” for “diluted with”, “10% saccharose.” for “10% sucrose.”
as §4

Structure (SMILES): O=c1c(-c2ccc(O)cc2)coc2cc(O)cc(O)c12 [genistein]
- inhibition of 17β-hydroxysteroid dehydrogenase (relationship between solution concentration and absorbance at 450 nm) [1]: the stronger the inhibition of 17β-hydroxysteroid dehydrogenase

Structure (SMILES): Nc1ccc(S(=O)(=O)Nc2ccnn2-c2ccccc2)cc1 [sulfaphenazole]
- inhibition of human cytochrome P450 CYP2C9 (359Ile) (concentration vs absorbance at 450 nm) ([2]; 30 μM dibenzylfluorescein, 0-1.2 μM final concentration, FIG. 19): the greater the inhibition of the two types of human cytochrome P450 CYP2C9
- difference between inhibition-dose curves of the two enzyme preparations ([2]; human CYP2C9 (359Ile) versus (359Leu), FIGS. 19 and 20): obvious differences between the sulfaphenazole inhibition-dose curves
- inhibition of human cytochrome P450 CYP2C9 (359Leu) (concentration vs absorbance at 450 nm) [3]: the greater the inhibition of the two types of human cytochrome P450 CYP2C9

Structure (SMILES): O=c1cc(-c2ccccc2)oc2c1ccc1ccccc12 [α-naphthoflavone]
- inhibition of cytochrome P450 CYP19 (relationship between solution concentration and absorbance at 450 nm) [4]: the greater the inhibition of cytochrome P450 CYP19
- inhibition of pig cytochrome P450 CYP19 (133Ile) (concentration vs absorbance at 450 nm) ([5]; 62.5 μM testosterone, 0-3.2 μM final concentration, FIG. 15): the greater the inhibition of pig cytochrome P450 CYP19
- difference in degree of inhibition between preparation (133Ile) and preparation (133Met) ([5]; pig CYP19 (133Ile) versus (133Met), FIGS. 15 and 16): the degree of inhibition differed greatly
- inhibition of pig cytochrome P450 CYP19 (133Met) (concentration vs absorbance at 450 nm) [6]: the greater the inhibition of pig cytochrome P450 CYP19
